The results in this text go back to US20230097992A1, “BIVALENT EGF FUSION TOXINS” (The Regents of the University of Colorado, a body corporate, priority 2020, published 2023).

“Also recorded” adds a separate entry of the source. Where only a bound is given, the exact number is not on record here.

Assay [1] has as its system HNSCC Cal27 subcutaneous xenografts. Description: Flank-xenograft solid tumor-bearing NSG mouse model. The conditions noted are these: for Median survival time: Subcutaneous xenograft model, fusion toxin or DT390 50 μg/kg IP, erlotinib 20 mg/kg gavage, once daily for 10 days from day 4. It counts as in vivo, NSG mice. The source says:
FIGS. 6A-6D presents the data from in vivo efficacy analysis of the human EGF fusion toxins against subcutaneous xenografts in NSG mice from two animal studies. FIG. 6A depicts the survival curve for NSG mice injected with Cal27 cells. […] FIGS. 6B-D depict tumor volume and weight data from the second study performed with a second cohort of NSG mice. […] Mice were euthanized on day 14 after tumor cell injection, when the first mouse in the DT390 group reached the end point. FIG. 6B: Tumor volumes were measured periodically, and the growth kinetics of the four groups were plotted. FIG. 6B depicts the tumor growth kinetics for a period of 14 days. FIG. 6C presents a bar graph representing the tumor weights at day 14. FIG. 6D depicts images of harvested tumors on day 14. Scale bar: 1 cm. FIGS. 6A-6C: *P<0.05; **P<0.01; ***P<0.001; ****P<0.0001; ns: not significant. The P-values for the survival curves in FIG. 6A were calculated using the Mantel-Cox log-rank test and that for the comparisons in FIGS. 6B and C were calculated using the two-tailed Student t-test (GraphPad Prism 9.0.0).
(§1) HNSCC tumor cells were injected via the following routes: 1) Flank-xenograft solid tumor model: eight million human HNSCC Cal27 tumor cells were subcutaneously injected into the right flank at day 0. The tumor-bearing mice were randomly divided into the four experimental groups when the tumors were palpable at day 3. The tumor volume was measured using digital vernier calipers every 3 days and calculated according to the formula: volume (mm^3)=(length×width×width)/2. 2) Tongue-orthotopic solid tumor model: eight million human HNSCC Cal27 tumor cells in 50 μl DMEM were injected into the tongue at day 0 following isoflurane anesthesia and the tumor-bearing mice were randomly divided into the planned four experimental groups at day 3. 3) Experimental metastasis model: one million human HNSCC Cal27 tumor cells in 200 μl DMEM were intravenously injected at day 0 via tail vein and the tumor-bearing mice were randomly divided into the four experimental groups at day 3.
(§2) Mono-EGF-IT (mEGF-IT), bEGF-IT, or DT390 was intraperitoneally injected (IP) starting at day 4 at 50 μg/kg, once daily for 10 consecutive days. […] The injected animals were observed daily for signs and symptoms of illness and scored at least twice weekly based on the parameters as previously reported (Peraino et al. (2013), J. Immunol. Methods 398-399, 33-43, which is hereby incorporated by reference in its entirety; Wang et al., 2015). The animals were humanely euthanized when the score exceeded the limit or the animal lost more than 15% of its pre-injection body weight. In addition, to assess whether the fusion toxins are toxic to the animals, NSG mice injected with the fusion toxins only were also included as control.
In vivo efficacy of the mEGF-IT and bEGF-IT against HNSCC was assessed using three immunodeficient tumor-bearing NSG mouse models. The first in vivo efficacy model was a flank-xenograft solid tumor-bearing NSG mouse model. Eight million Cal27 tumor cells were injected subcutaneously (SQ) into the right flank at day 0. The EGF fusion toxins were injected intraperitoneally (IP) starting on day 4 at 50 μg/kg daily for 10 consecutive days. […] The reduction of the tumor volumes, weights and sizes (FIGS. 6B-6D) were all consistent with the median survival prolongation.

The test system of assay [2] is HNSCC Cal27 cells injected intravenously (lung metastases). Description: Experimental lung metastasis NSG mouse model. It counts as in vivo, NSG mice. The conditions noted are these: for Median survival time: Lung metastasis model, fusion toxin or DT390 50 μg/kg IP, erlotinib 20 mg/kg gavage, once daily for 10 days from day 4; for number of metastases in the lungs: second cohort, euthanized 10 days after tumor cell inoculation. As to the method: FIG. 8A-C presents data from in vivo efficacy analysis of the human EGF fusion toxins using an experimental lung metastasis NSG mouse model. FIG. 8A presents data from a first animal study for survival curve analysis. NSG mice were IV injected with one million human EGFR^+ HNSCC Cal27 cells on day 0. Mice were injected intraperitoneally (IP) with the EGF fusion toxin or DT390 at 50 μg/kg, once daily for 10 consecutive days starting on day 4 after the tumor cell injection. […] The schedule of the fusion toxin and tumor cell injection is pictured in the schematic below the survival curve. The vertical arrows indicate the days on which the tumor cells or the fusion toxins were injected. *P<0.05; **P<0.01; ***P<0.001; ****P<0.0001. The P-values for the survival curves were calculated using the Mantel-Cox log-rank test (GraphPad Prism9.0).
FIGS. 8B and C present data from a second animal study for a pathology analysis. […] The mice were euthanized on day 10 after tumor cell injection when the first mouse in the DT390 group reached the end point. FIG. 8B presents H&E pictures of lung metastases. Metastases are indicated in the upper panels by black arrowheads. Scale bar: 500 μm. The lower panels are higher magnification pictures of the area in black rectangles in the upper panels. […] Error bars indicate standard deviation (SD).
as §1, §2
The third in vivo efficacy model was an experimental metastasis model. One million of HNSCC Cal27 tumor cells were intravenously injected via the tail vein of NSG mice at day 0. The EGF fusion toxins were injected intraperitoneally (IP) starting on day 4 at 50 μg/kg daily for 10 consecutive days. […] To further assess the effects of the fusion toxins on metastasis, the experimental metastasis study was repeated with a second cohort of NSG mice, and all mice were euthanized 10 days after tumor cell inoculation, when the first mouse in the DT390 group reached the end point. The data are depicted in FIGS. 8B and C.

For the compound `C#Cc1cccc(Nc2ncnc3cc(OCCOC)c(OCCOC)cc23)c1` [Erlotinib], the figures for the Median survival time in assay [1] and in assay [2] were >60 days and 30 days, respectively. In addition, the “number of metastases in the lungs” value in assay [2] is recorded as “reduced compared with the DT390-negative control group”.

“Bi-EGF IT: DT390 joined by G4S to two human EGF domains linked by (G4S)3, C-terminal 6×His tag; SEQ ID NO: 10”: the Median survival time in assay [1] was >60 days; in assay [1] (listed as bEGF-IT), 61 days; in assay [2], 38 days. The “decrease of tumor sizes and weights” value in assay [1] (flank xenograft, second cohort, day 14) is given as “about 80%”. Further, the “number of metastases in the lungs” value in assay [2] was “reduced compared with the DT390-negative control group; also recorded: reduction was greater in the bi-EGF-IT group than in the mono-EGF-IT group”.
